Measured values taken from US9359322B2, “C-linked glucuronide of N-(4-hydroxybenzyl) retinone, analogs thereof, and methods of using the same to inhibit neoplastic cell growth” (Wisconsin Alumni Research Foundation, priority 2005, dated 2016).
Marks after values point to notes of the source that are not given here. One block for each molecule: values may come before it.

Legend:
[1] = system: DMBA-induced rat mammary tumor; assay: DMBA-induced rat mammary tumor model, retinoid-containing diets; type: in vivo
Method: Preliminary evaluation of the mammary tumor chemotherapeutic activity of 4-HBRCG (7) was conducted, and its toxicity profile was also assessed. As previously described,^7, 12 tumor-bearing female rats (treated ca. 50 days earlier with 7,12-dimethylbenz(a)anthracene [DMBA]) were fed the control or retinoid-containing diets (RA (2), 4-HPR (3) or 4-HBRCG (7)) at 2 mmole/kg diet for 22 days.
(§1) Animal Studies: Mammary tumors were induced by intragastric intubation of 50-day old female Sprague-Dawley rats (Harlan Industries, Indianapolis, Ind.) with a single dose of 15 mg DMBA in 1.0 ml of sesame oil per rat. The rats were then maintained on a powdered Teklad 22/5 rodent chow diet (W) 8640 (Harlan Industries, Indianapolis, Ind.), and allowed food and water ad libitum. Four months later, rats which had developed palpable tumors were randomly assigned to the experimental groups (4 rats/group). The retinoid-treated groups were fed diets supplemented with 2 mmol/kg diet of atRA, 4-HPR, or 4-HBRCG, respectively. The retinoids were added to the diet in a vehicle consisting of 25 ml of ethanol: tricaprylin (1:4 v/v) plus 2% (w/v) of α-tocopherol as previously described.^9 This vehicle was also added to the control diet. The additives were blended into the chow diets using a Hobart food mixer. The diets were fed in stainless steel feeders designed with food hoppers. The food was replaced weekly with freshly prepared diets. Food consumption was determined once weekly, and from that the average daily consumption/rat was estimated. These diets were continuously fed for 22 days. Animals were also weighted weekly and monitored for general health status and signs of possible toxicity due to treatment.
(§2) Baseline measurement of initial tumor sizes, numbers and rat body weights were determined immediately before commencement of treatments, and final measurements were recorded just prior to sacrifice of the animals. Animals were palpated for tumors twice weekly and tumor diameters were measured weekly by a micrometer caliper. Tumor volumes were calculated using the formula [V= 4/3 πr^3] where r is one-half the mean of the sum of the largest diameter and the axis at right angle to it. All tumors as well as lungs, liver, kidney and femur were excised at the end of the experiment for chemical and histopathological evaluation. Blood samples were also taken from each animal for determination of plasma retinol and triglyceride levels.

[2] = Body weight change during retinoid feeding; type: in vivo, rat; settings: 2 mmol/kg diet
Method: as §1, §2

[3] = Terminal plasma drug levels (plasma retinoid assay, HPLC); type: in vivo, rat; settings: female, Sprague-Dawley, rat, plasma, oral; day 22 of treatment; 2 mmol/kg diet; ± SEM; read-out: Plasma retinoid concentration (terminal plasma drug level)
Method: Plasma Retinoid Assay. To 500 μL of plasma was added 150 μL of ethanol containing 0.75 μg of internal standard (N-(4-chlorophenyl) retinamide). After mixing 30 sec., 500 μL of ethyl acetate was added followed by 1 min. of mixing and centrifugation for 5 minutes at 1000 rpm in an IEC CL centrifuge. The ethyl acetate layer was removed and syringe filtered through a 0.45 um filter. The ethyl acetate extraction was repeated two more times. The combined extracts were evaporated and the residue reconstituted in 100 μL of methanol. The methanol extract (20 μL) was analyzed by HPLC on a Beckman Instruments model 127 instrument equipped with a model 166 UV detector. Chromatography was done on a precolumn equipped 250×4.6 mm Bechman Ultrasphere ODS column with an 85% methanol/water mobile phase (both containing 10 mM ammonium acetate) flowing at 1 mL/min. Analysis for both internal standard and retinol was conducted at 350 nm and internal standard recoveries and retinol levels were determined by comparison with standard curves, with adjustment of the retinol level based on recovery. Recoveries of internal standard averaged ca. 78%. […] In the 4-HPR treated group, plasma levels of this retinoid were evaluated simultaneously in the same samples as above. In order to avoid interfering substances, plasma treatment retinoid levels for RA and 4-HBRCG were measured using the above system and a step gradient of 75% methanol for 15 min. followed by 85% methanol for 40 minutes.

[4] = Plasma triglyceride measurement; type: in vivo, rat; settings: 2 mmol/kg diet, 22 days; FIG. 2A
Method: Plasma Triglyceride Measurement. Bloods were drawn from anesthetized animals in the presence of EDTA as an anticoagulant, and the resulting plasma was used for the measurement of plasma “true” triglyceride levels using a kit from Sigma-Aldrich (Saint Louis, Mo.). Briefly, the total plasma triglyceride and glycerol concentrations were determined, and the glycerol component was subtracted from the total plasma triglyceride measurement to obtain the “true” serum triglyceride concentration.

[5] = Femur bone mineral content; type: in vivo, rat; settings: end of feeding study; FIG. 2B
Source text: Bone Mineral Content. The femur was disarticulated from the leg, and the adhering soft tissue was removed by dissection. Femurs were scanned using the Lunar PIXImus 2 system (Model X2608, General Electric using the LUNAR software version 1.45), and control measurements were made using the small animal quality control phantom. Femurs were scanned 5 times each with re-positioning at each measure. The average value of the bone mineral content (BMC) in grams for each animal is reported as one independent measure.

[6] = system: CYP26A1 mRNA; assay: Induction of CYP26A1 mRNA in liver (Q-PCR); type: in vivo, rat; settings: at sacrifice, retinoid-fed rats, 2 mmol/kg diet; FIG. 4
[7] = system: CYP26B1 mRNA; assay: Induction of CYP26B1 mRNA in lung (Q-PCR); type: in vivo, rat; settings: at sacrifice, retinoid-fed rats, 2 mmol/kg diet; data not shown
[8] = biological target: T1, RARβ (Homo sapiens, UniProt P10826); assay: Nuclear retinoid receptor binding assay, competition with [3H]all-trans RA; settings: FIG. 3A
T1 sequence (P10826 1-455): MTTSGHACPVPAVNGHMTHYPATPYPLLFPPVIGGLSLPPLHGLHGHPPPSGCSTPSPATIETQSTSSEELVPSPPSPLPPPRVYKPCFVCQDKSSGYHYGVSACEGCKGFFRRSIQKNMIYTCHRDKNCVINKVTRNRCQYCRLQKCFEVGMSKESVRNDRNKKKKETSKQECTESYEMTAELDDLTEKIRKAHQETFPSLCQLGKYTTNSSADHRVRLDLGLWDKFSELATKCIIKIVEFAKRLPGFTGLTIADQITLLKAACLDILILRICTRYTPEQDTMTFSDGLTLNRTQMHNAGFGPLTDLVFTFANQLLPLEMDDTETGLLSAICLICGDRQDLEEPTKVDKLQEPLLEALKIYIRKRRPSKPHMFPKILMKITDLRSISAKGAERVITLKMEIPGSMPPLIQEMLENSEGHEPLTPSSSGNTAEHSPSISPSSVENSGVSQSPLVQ
Method: (§3) Nuclear Retinoid Receptor Binding Assay. Competition of 3 and 7 and 4-HBRCGlucose with [^3H]-all-trans-RA (4.2-4.6 nM) for binding to RARβ and RARγ and with [^3H]-9-cis RA (1.9 nM) for binding to RXRγ was determined using an in vitro ligand binding assay.^41, 42 [^3H]-all-trans-RA (40.5 Ci/mmole) or [^3H]-9-cis-RA (69.4 Ci/mmole) was added to receptor-containing extracts in the absence and presence of increasing concentrations of competing ligands at 4° C. for 3 hr. A hydroxylapatite (HAP) assay was used to separate ligand bound to receptor from that free in solution, and the radioactivity associated with the HAP pellet was measured by scintillation counting.

[9] = biological target: T2, RARγ (Homo sapiens, UniProt P13631); assay: as above; settings: FIG. 3B
T2 sequence (P13631 1-454): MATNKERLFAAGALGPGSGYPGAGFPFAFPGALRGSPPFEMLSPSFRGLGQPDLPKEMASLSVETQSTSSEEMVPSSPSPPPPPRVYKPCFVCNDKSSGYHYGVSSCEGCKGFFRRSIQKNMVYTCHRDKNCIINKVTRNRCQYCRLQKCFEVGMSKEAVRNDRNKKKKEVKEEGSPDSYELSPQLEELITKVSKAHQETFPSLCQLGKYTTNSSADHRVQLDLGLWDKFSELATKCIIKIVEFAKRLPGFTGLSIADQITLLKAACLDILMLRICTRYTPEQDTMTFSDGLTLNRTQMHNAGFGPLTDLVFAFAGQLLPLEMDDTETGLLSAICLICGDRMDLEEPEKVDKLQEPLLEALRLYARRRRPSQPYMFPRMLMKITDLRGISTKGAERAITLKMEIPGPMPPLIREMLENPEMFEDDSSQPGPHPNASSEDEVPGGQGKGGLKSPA
Method: as §3

[10] = biological target: T3, RARα (Homo sapiens, UniProt P10276); assay: Nuclear retinoid receptor binding assay; settings: 4-HBRCG up to 10^−4.5 M; data not shown
T3 sequence (P10276 1-462): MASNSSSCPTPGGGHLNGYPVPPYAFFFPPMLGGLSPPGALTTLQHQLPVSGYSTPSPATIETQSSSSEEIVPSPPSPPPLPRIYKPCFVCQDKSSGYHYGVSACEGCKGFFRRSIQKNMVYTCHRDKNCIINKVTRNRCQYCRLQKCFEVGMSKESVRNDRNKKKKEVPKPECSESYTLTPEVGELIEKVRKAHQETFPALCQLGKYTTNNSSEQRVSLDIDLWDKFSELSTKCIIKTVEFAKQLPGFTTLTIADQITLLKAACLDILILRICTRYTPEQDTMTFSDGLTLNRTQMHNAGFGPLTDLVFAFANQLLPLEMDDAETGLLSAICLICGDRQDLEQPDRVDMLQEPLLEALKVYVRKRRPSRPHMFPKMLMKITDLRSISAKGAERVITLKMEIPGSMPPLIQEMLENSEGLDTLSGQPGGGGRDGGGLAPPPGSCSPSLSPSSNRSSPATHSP

[11] = biological target: T4, RXRγ (Homo sapiens, UniProt P48443); assay: Nuclear retinoid receptor binding assay, competition with [3H]9-cis RA; settings: 4-HBRCG up to 10^−4.5 M; data not shown
T4 sequence (P48443 1-463): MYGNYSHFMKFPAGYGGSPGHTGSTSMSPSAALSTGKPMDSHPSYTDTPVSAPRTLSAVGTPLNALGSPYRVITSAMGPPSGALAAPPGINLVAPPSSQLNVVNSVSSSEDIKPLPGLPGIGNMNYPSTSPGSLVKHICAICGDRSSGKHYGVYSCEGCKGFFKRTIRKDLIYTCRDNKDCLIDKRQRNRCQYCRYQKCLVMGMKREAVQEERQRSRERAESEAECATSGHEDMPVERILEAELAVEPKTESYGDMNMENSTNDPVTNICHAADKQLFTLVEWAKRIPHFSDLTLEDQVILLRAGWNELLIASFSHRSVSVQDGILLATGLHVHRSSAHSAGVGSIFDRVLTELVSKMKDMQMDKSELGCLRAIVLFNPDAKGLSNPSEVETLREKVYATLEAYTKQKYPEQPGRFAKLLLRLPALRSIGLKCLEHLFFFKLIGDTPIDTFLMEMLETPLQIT
Method: as §3

[12] = system: MCF-7 human breast cancer cells; assay: Growth inhibition of MCF-7 human breast cancer cells; type: cell-based; settings: 10^−5 M, 8-day period
Method: Inhibition of MCF-7 human breast cancer cell growth over an 8-day period was used as a means to assess the activity of 4-HBRCG and the analog 4-HBRCGlucose.
Growth inhibition of MCF-7 human breast cancer cells. MCF-7 cells were obtained from the American Type Culture Collection, Manassas, Va. They were maintained in DMEM medium supplemented with 4 g/L glucose, 3.7 g/L sodium bicarbonate and 10% heat-inactivated fetal calf serum. Cells were passaged into 12-well plates, cultured for 24 hours, after which time they were dosed with vehicle (0.2% ethanol) or retinoids; medium was changed and fresh vehicle or retinoids were added daily. Cells were harvested and the number of live cells was assessed using fluorescein diacetate, which yields a fluorescent product upon cleavage by metabolically active cells. Using fluorescent microscopy, at least 200 cells/well were counted with a hemacytometer.

[13] = system: nuclear retinoic acid receptors (RAR); settings: cited from earlier work
[14] = number of individual tumors, 2 mmol/kg diet, 22 days

concentration at 22 day [3]: 300 ± 100 ng/mL
Effect on femur bone mineral content vs control [5]: significant reduction in femur BMC
Structure (SMILES): CC1=C(/C=C/C(C)=C/C=C/C(C)=C/C(=O)O)C(C)(C)CCC1 [Retinoic acid (2), all-trans retinoic acid]
% Change in tumor volume from baseline ([1]; 2 mmol/kg diet for 22 days): −38 ^d %
Final tumor volume ([1]; 2 mmol/kg diet for 22 days, mean ± SEM): 0.05 ± 0.02 cm^3
Initial tumor volumes ([1]; baseline before treatment, mean ± SEM): 0.08 ± 0.03 cm^3
Complete regression (tumors that totally disappeared) [1, 14]: 1
No effect [1, 14]: 1
Partial regression (tumors with 25-75% decrease in volume) [1, 14]: 8
New tumors ([1]; number of tumors, 2 mmol/kg diet, 22 days): 0
Effect on normal body weight gain ([2]; feeding period): significant reduction in normal body weight gain
% Weight change ([2]; relative to baseline body weight over 22 days): +0.2 ^d %
Effect on serum triglyceride concentration [4]: dramatically increased serum triglyceride concentration
Induction of CYP26A1 mRNA in liver [6]: 67 fold above control
Induction of CYP26B1 mRNA in lung [7]: 46 fold above control

Binding to RARβ [8]: binds poorly
Binding to RARγ [9]: binds poorly
Binding to RARα [10]: binds poorly
Competition for [3H]9-cis RA binding to RXR [11]: binds poorly
Structure (SMILES): CC1=C(/C=C/C(C)=C/C=C/C(C)=C/C(=O)Cc2ccc(C[C@@H]3O[C@H](CO)[C@@H](O)[C@H](O)[C@H]3O)cc2)C(C)(C)CCC1 [4-HBRCGlucose, 2,6-Anhydro-7-deoxy-7-[4-(retinoylmethyl)-phenyl]-D-glycero-D-gulo-heptinol]
State of MCF-7 cells at end of assay [12]: the majority of the MCF-7 cells were dead at the end of the assay
Effect on number of live MCF-7 cells ([12]; FIG. 5): reduction in the number of live cells

Structure (SMILES): CC1=C(/C=C/C(C)=C/C=C/C(C)=C/C(=O)Nc2ccc(CC3OC(C(=O)O)C(O)C(O)C3O)cc2)C(C)(C)CCC1 (stereo not shown) [compound 6, N-(4-hydroxyphenyl) retinamide-C-glucuronide]
Affinity for binding to nuclear RAR relative to RA [13]: low affinity relative to RA

Structure (SMILES): CC1=C(/C=C/C(C)=C/C=C/C(C)=C/C(=O)Nc2ccc(O[C@@H]3O[C@H](C(=O)O)[C@@H](O)[C@H](O)[C@H]3O)cc2)C(C)(C)CCC1 [compound 5, N-(4-hydroxyphenyl) retinamide-O-glucuronide]
Affinity for binding to nuclear RAR relative to RA [13]: low affinity relative to RA
